Experiments:
Assay type in all cases: in vivo
rat model of DKA [1] = experiment: Plasma ET-1 level (Enzyme Immunometric Assay) in diabetic ketoacidosis rats
Description: In order to analyze the change in plasma ET-1 level during the treatment, blood samples were withdrawn through right femoral artery of the rats before and at the end of experiment and were collected into chilled EDTA tubes (1 mg/mL blood) containing aprotinin (500 KIU/mL of blood). The blood samples were centrifuged at 1,600×g for 15 minutes at 0° C. and plasma separated was stored at −70° C. until analyzed. ET-1 level was estimated using Assay's Design's Endothelin-1 Enzyme Immunometric Assay Kit (Nowicki et al., 2005; Brondani et al., 2007). Briefly, plasma samples and standards were added to wells coated with a monoclonal antibody specific for ET-1. The plate then was washed after 24 hours of incubation, leaving only bound ET-1 on the plate. A solution of horseradish peroxidase (HRP) labeled monoclonal antibody to ET-1 then was added, which binds to the ET-1 captured on the plate. The plate was incubated for 30 min, then washed to remove excess HRP labeled antibody. A solution of 3,3′,5,5′-tetramethylbenzidine (TMB) substrate was added, which generates a blue color when catalyzed by the HRP. Hydrochloric acid (1N) was added to stop the substrate reaction, and the resulting yellow color was read at 450 nm using DTX 800 Multimode detector. The data was analyzed with Multimode Detection Software (Beckman Coulter, Inc., Fullerton, Calif.). The measured optical density is directly proportional to the concentration of ET-1 in either standards/plasma. Blood samples from all the groups were collected before the start and at end of the treatment.
(§1) Group 4: Diabetic saline/insulin treated (D-Saline+insulin treated): Rats were injected with streptozotocin in citrate buffer (150 mg/kg ip) to induce diabetes and ketoacidosis. On day three, rats were treated with 1.5 U/kg regular insulin (Humulin® R (Regular human insulin, rDNA origin). On day four, saline and insulin treatment was carried out. Rats were infused via cannulated femoral vein saline, 0.9% NaCl at 80 mL/kg/hr and 1.5 U/kg/hr regular insulin for one hour. During the next two through four hours, rats were infused with saline, 0.9% NaCl at 40 mL/kg/hr and 1.5 U/kg/hr regular insulin (Yuen et al., 2008).
(§2) Group 5: Diabetic BMS-182874/saline/insulin treated (D-BMS+Saline+insulin treated): Rats were injected with streptozotocin in citrate buffer (150 mg/kg ip) to induce diabetes and ketoacidosis. On day three, rats were treated with 1.5 U/kg regular insulin. On day four, rats were administered a bolus dose of selective ETA receptor antagonist, BMS-182874 (9 mg/kg), then saline and insulin treatment was carried out. Rats were infused via cannulated femoral vein saline, 0.9% NaCl at 80 mL/kg/hr and 1.5 U/kg/hr regular insulin for one hour. During the next two through four hours rats were infused with saline, 0.9% NaCl at 40 mL/kg/hr and 1.5 U/kg/hr regular insulin.
(§3) Group 6: Diabetic BQ123/saline/insulin treated (D-BQ+saline+insulin treated): Same as above for Group 5, except BQ123 (1 mg/kg body weight) is used as a substitute for BMS-182874 (9 mg/kg).
(§4) Data are presented as mean±SEM. The significance of differences was estimated by one-way analysis of variance (intra group comparison with respect to base line data) and two-way analysis of variance (inter group comparison with respect to corresponding time points from each groups) followed by application of the Dunnett's Multiple Comparisons and Bonferroni test respectively. A P value of less than 0.05 was considered to be significant. The statistical analysis was processed with GraphPad Prism software Version 5.00.

rat model of DKA [2] = experiment: Arterial blood gases, electrolytes, lactate and hematocrit in diabetic ketoacidosis rats
Description: Arterial blood pH, pO2, pCO2, Na^+, K^+, lactate, and hematocrit were monitored prior to, at one hour, and at the end of treatment. Blood samples were drawn from the arterial cannula using blood gas sampling syringes (Innovative Medical Technologies, Inc. Leawood, Kans.) and analyzed using a GEM Premier 3000 unit (Instrument Laboratory, Lexington, Mass.). Blood samples were withdrawn from the femoral artery for baseline reading prior to start of treatment, after the first hour of treatment, and then at the end of the treatment (fifth hour of experiment).
as §1, §2, §3, §4

rat model of DKA [3] = experiment: Cardiovascular parameters (MAP, pulse pressure, heart rate) in diabetic ketoacidosis rats; details: result in words
Description: Rats were anaesthetized with urethane (1.5 g/kg ip.) and prepared for the determination of hemodynamic parameters (Gulati et al., 1997a; Gulati et al., 1997b). The anesthetized rats were shaved and immobilized to prepare for cannulation. A 2-3 centimeter (cm) incision was made above the femoral vein and artery and the vessels were dissected and cleaned. The left femoral vein was cannulated (PE-50 tubing, Clay Adams, Parsipanny, N.J.) and secured for drug administration. An ultra-miniature pressure transducer SPR-320 (2F Polyurethane), with a single pressure sensor side mounted at the tip (Millar Instruments, Houston, Tex.) was inserted in the left femoral artery to acquire the hemodynamic signals. Pressure transducer was connected to bridge amplifier (ML221 Bridge Amp; AD Instruments, Mountain View, Calif., USA) with Viking connector (AEC-10C) and the signals were continuously acquired at a sampling rate of 1000 S^−1 using Millar PowerLab 16/30 data acquisition system (AD Instruments, Mountain View, Calif., USA). Mean arterial pressure (MAP), heart rate (HR), and pulse pressure (PP) were determined and analyzed with LabChart-5.00 software program (Millar Instruments). After the experiment was completed, the animals were euthanized with a high dose of urethane (3 gm/kg).
as §1, §2, §3, §4

rat model of DKA [4] = experiment: Brain and lung water content in diabetic ketoacidosis rats; details: end of treatment
Description: Water content in the lung and brain was determined to assess brain and pulmonary edema. Assessment of brain and lung water content was carried out as follows. At the end of treatment the animal was sacrificed and trachea was immediately tied, then the lungs were dissected out. The skull was opened and brain dissected out. Brain and lungs were rinsed with saline, and weighed (wet weight). The brain and lungs were kept for drying in an oven at a temperature of 60° C. for 72 hours, then weighed again (dry weight). The percent water content was calculated using the formula: [(wet weight−dry weight)/wet weight×100].
as §1, §2, §3, §4

[5] = day 4, compared to diabetic untreated rats, result in words
[6] = saline+insulin, alone or after bolus BMS-182874 9 mg/kg or BQ123 1 mg/kg
[7] = saline+insulin, alone or after bolus BMS-182874 9 mg/kg or BQ123 1 mg/kg, instrument floor 6.80

## Insulin: Humulin® R (Regular human insulin, rDNA origin), infused with saline
Rat model of DKA [1]; baseline before treatment, mean±SEM
  plasma ET-1, Day 4 (pre tx): 11.76 ± 1.94 pg/mL
Rat model of DKA [1]; day 4, result in words (Table 4, FIG. 9)
  effect of treatment on plasma ET-1 level: increased the plasma levels of ET-1
Rat model of DKA [1]; saline+insulin, alone or after bolus BMS-182874 9 mg/kg or BQ123 1 mg/kg, mean±SEM
  plasma ET-1, Day 4 (end of tx): 22.17 ± 2.67 pg/mL
Rat model of DKA [2]; baseline, instrument could not record pH below 6.80, mean±SEM
  arterial blood pH, Day 4 (pre-tx): 6.81 ± 0.01
Rat model of DKA [2]; baseline, mean±SEM
  arterial blood pCO2, Day 4 (pre-tx): 30.40 ± 2.46 mmHg
  arterial blood pO2, Day 4 (pre-tx): 145.00 ± 10.84 mmHg
  blood K+ level, Day 4 (pre-tx): 3.82 ± 0.29 mmol/L
  blood Na+ level, Day 4 (pre-tx): 135.00 ± 2.17 mmol/L
  blood hematocrit (Hct), Day 4 (pre-tx): 49.80 ± 2.27%
Rat model of DKA [2]; day 4, antagonist given with saline+insulin, result in words
  effect of treatment on arterial blood pH (acidosis): did not produce any significant improvement in acidosis
Rat model of DKA [2]; [5]
  effect of treatment on blood K+ levels: significantly reduced the change in blood K^+ levels
  effect of treatment on blood lactate levels: significantly reduced the change in blood lactate levels
  effect of treatment on hematocrit: significantly reduced the hematocrit
Rat model of DKA [2]; [6]
  arterial blood pCO2, Day 4 (1 hour of tx): 29.00 ± 2.30 mmHg
  arterial blood pCO2, Day 4 (end of tx): 27.60 ± 2.21 mmHg
  arterial blood pO2, Day 4 (1 hour of tx): 160.20 ± 11.36 mmHg
  arterial blood pO2, Day 4 (end of tx): 155.60 ± 11.43 mmHg
  blood K+ level, Day 4 (1 hour tx): 2.92 ± 0.16 mmol/L
  blood K+ level, Day 4 (end of tx): 2.48 ± 0.24 mmol/L
  blood Na+ level, Day 4 (1 hour of tx): 141.60 ± 1.21 mmol/L
  blood Na+ level, Day 4 (end of tx): 148.60 ± 0.51 mmol/L
  blood hematocrit (Hct), Day 4 (1 hour of tx): 38.80 ± 1.80%
  blood hematocrit (Hct), Day 4 (end of tx): 30.20 ± 3.12 %
Rat model of DKA [2]; [7]
  arterial blood pH, Day 4 (1 hour of tx): 6.80 ± 0.01
  arterial blood pH, Day 4 (end of tx): 6.81 ± 0.04
Rat model of DKA [3]; day 4, FIG. 3, antagonist given with saline+insulin
  effect on mean arterial pressure: produced much less fall in arterial pressure compared to untreated rats
Rat model of DKA [3]; day 4, FIG. 4, antagonist given with saline+insulin
  effect on pulse pressure: produced much less fall in pulse pressure compared to untreated rats
Rat model of DKA [3]; day 4, FIG. 5, antagonist given with saline+insulin
  effect on heart rate: did not produce any decrease in heart rate compared to baseline
Rat model of DKA [4]; FIG. 7, result in words
  effect on lung water content (pulmonary edema): restored lung water content
Rat model of DKA [4]; FIG. 8, result in words
  effect on brain water content (cerebral edema): restored brain water content
